This is an account of results in paper PMC9908594, “Biochemical characterization and identification of ferulenol and embelin as potent inhibitors of malate:quinone oxidoreductase from Campylobacter jejuni” (Frontiers in Molecular Biosciences, 2023).

For experiment [1], the target named is CjMQO (malate:quinone oxidoreductase from C. jejuni) (Campylobacter jejuni, UniProt P56954). Put plainly: biochemical. Conditions: 50 mM MOPS pH 7.0, 100 μM UQ1, 1 mM KCN, 0.2 μg/mL CjMQO, 10 mM malate; read-out: IC50 on purified CjMQO. The experiment is classed as biochemical.
Experiment [2] deals with human fibroblasts. Also noted: method as in Feresin et al., 2003. Conditions: ref Feresin et al., 2003, read-out: Toxic concentration IC50; cited from earlier work.
Experiment [3] addresses CjMQO (Campylobacter jejuni, UniProt P56954). Put plainly: Inhibition mechanism of CjMQO (mixed-model fit, Lineweaver-Burk). The experiment is classed as biochemical. The protocol: The inhibition mechanism of the two compounds were investigated as described in a previous study ([Acharjee et al., 2021]). First, the inhibition mechanism versus UQ1 was assayed separately in a reaction mixture containing 50 mM MOPS pH 7.0, 1 mM KCN and 0.2 μg/mL of purified CjMQO containing a range of different ferulenol (0, 0.01, 0.02, and 0.04 μM) and embelin (0, 0.05, 0.1, and 0.15 μM) concentrations. Enzyme activity was measured at varying concentrations of UQ1 (5, 10, 20, 50, and 100 μM) and the reaction was initiated with 10 mM malate. Second, the inhibition mechanism versus malate was determined at 50 μM of UQ1, and the reaction was initiated with varying concentrations of malate (5, 10, 15, and 20 mM) and monitored at 278 nm, in singlets. The steady-state kinetics parameters, in the presence of inhibitors, were used to produce the Lineweaver-Burk plot. Next, the data were fitted to a mixed-type inhibition equation by a nonlinear-regression method using GraphPad Prism software. The intercept and slope from the primary plot (Lineweaver-Burk plot), were replotted as a function of the inhibitor. Finally, additional analysis was performed based on Dixon and Cornish Bowden plots in addition to the plot of Lineweaver-Burk to differentiate the types of inhibition mechanisms.

Experiment [4] deals with C. jejuni ATCC29428. Put plainly: C. jejuni growth inhibition, resazurin assay. The experiment is classed as cell-based, Campylobacter jejuni.

Sequence of CjMQO (P56954 whole entry): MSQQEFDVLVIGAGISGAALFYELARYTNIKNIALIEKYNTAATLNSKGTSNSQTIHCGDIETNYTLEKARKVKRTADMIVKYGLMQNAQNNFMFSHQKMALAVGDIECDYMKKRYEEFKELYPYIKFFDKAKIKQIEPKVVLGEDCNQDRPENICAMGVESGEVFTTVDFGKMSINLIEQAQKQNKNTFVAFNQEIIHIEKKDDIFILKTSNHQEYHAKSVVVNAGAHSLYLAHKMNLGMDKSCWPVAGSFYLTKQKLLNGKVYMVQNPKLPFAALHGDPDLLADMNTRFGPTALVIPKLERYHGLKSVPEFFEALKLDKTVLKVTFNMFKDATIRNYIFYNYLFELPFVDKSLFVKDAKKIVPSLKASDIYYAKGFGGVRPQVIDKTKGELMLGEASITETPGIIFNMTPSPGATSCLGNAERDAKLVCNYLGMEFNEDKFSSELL
Sequence of CjMQO (malate:quinone oxidoreductase from C. jejuni) (P56954 whole entry): as above

For the compound `CCCCCCCCCCCC1=C(O)C(=O)C=C(O)C1=O` [Embelin, 2,5-dihydroxy-3-undecyl-p-benzoquinone], in experiment [1], the IC50 was 0.087 µM. Besides, the IC50 in experiment [2] was 739 µM. In addition, in experiment [3] (UQ1 varied, malate fixed), the “K m (apparent, mixed-model fit)” value worked out at 47 ± 6.3 µM; the “V max (apparent, mixed-model fit)” value is 164 ± 11 µmol/min/mg; the “α versus UQ1 (quinone)” value is reported as 0.998. Besides, in experiment [3] (UQ1 varied, malate fixed (10 mM)), the “K i versus UQ1” value came to 0.14 µM. Also, the “Inhibition type versus UQ1 (quinone)” value in experiment [3] (UQ1 varied, malate fixed, NC: noncompetitive) is “noncompetitive”. In addition, in experiment [3] (malate varied, UQ1 fixed), the “Inhibition type versus malate” value is listed as “Mixed”; the “K m (apparent, mixed-model fit)” value is listed as 2,225 ± 292 μM; the “V max (apparent, mixed-model fit)” value came to 71 ± 3 µmol/min/mg; the α versus malate was 1.43. Moreover, in experiment [3] (malate varied, UQ1 fixed (50 μM)), the “K i versus malate” value came to 0.10 µM. Also, the “Inhibition type versus malate” value in experiment [3] (malate varied, UQ1 fixed, listed as embelin) is given as “mixed-type”. Further, in experiment [4] (Campylobacter jejuni, ATCC29428, Mueller Hinton broth, 24 h, microaerophilic, 37°C, resazurin), the IC50 was determined as 21 µM. For the same compound, in experiment [4] (at a concentration of 100 μM), the “Inhibition of growth of C. jejuni ATCC29428” value is on record as “completely inhibited”.
